ChEMBL document CHEMBL1145498, “A systematic interaction map of validated kinase inhibitors with Ser/Thr kinases” (Proc Natl Acad Sci U S A, 2007)

How the values were obtained:
[1] = target: 5'-AMP-activated protein kinase catalytic subunit alpha-2 (Homo sapiens) (UniProt P54646)
[2] = target: Calcium/calmodulin-dependent protein kinase type II subunit alpha (Homo sapiens) (UniProt Q9UQM7)
[3] = target: Calcium/calmodulin-dependent protein kinase type II subunit beta (Homo sapiens) (UniProt Q13554)
[4] = target: Calcium/calmodulin-dependent protein kinase type II subunit delta (Homo sapiens) (UniProt Q13557)
[5] = target: Calcium/calmodulin-dependent protein kinase type II subunit gamma (Homo sapiens) (UniProt Q13555)
[6] = target: Cyclin-dependent kinase 2 (Homo sapiens, UniProt P24941)
[7] = target: Cyclin-dependent kinase 6 (Homo sapiens) (UniProt Q00534)
[8] = target: Cyclin-dependent kinase-like 1 (Homo sapiens) (UniProt Q00532)
[9] = target: Serine/threonine-protein kinase Chk2 (Homo sapiens, UniProt O96017)
[10] = target: Dual specificity protein kinase CLK1 (Homo sapiens) (UniProt P49759)
[11] = target: Casein kinase I isoform gamma-2 (Homo sapiens) (UniProt P78368)
[12] = target: Casein kinase I isoform gamma-3 (Homo sapiens) (UniProt Q9Y6M4)
[13] = target: Death-associated protein kinase 3 (Homo sapiens) (UniProt O43293)
[14] = target: Tyrosine-protein kinase JAK1 (Homo sapiens) (UniProt P23458)
[15] = target: Dual specificity mitogen-activated protein kinase kinase 2 (Homo sapiens, UniProt P36507)
[16] = target: T1, Dual specificity mitogen-activated protein kinase kinase 6 (Homo sapiens) (UniProt P52564)
T1 sequence (whole entry): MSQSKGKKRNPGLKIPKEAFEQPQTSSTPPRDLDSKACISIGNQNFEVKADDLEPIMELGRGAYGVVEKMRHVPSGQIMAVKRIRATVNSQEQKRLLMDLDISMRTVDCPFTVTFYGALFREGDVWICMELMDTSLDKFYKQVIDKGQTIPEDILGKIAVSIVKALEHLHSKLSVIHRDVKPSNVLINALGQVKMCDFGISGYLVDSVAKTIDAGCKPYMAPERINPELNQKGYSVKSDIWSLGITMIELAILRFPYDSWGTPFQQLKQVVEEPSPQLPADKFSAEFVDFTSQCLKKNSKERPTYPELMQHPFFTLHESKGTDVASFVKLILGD

[17] = target: Mitogen-activated protein kinase 3 (Homo sapiens, UniProt P27361)
[18] = target: Serine/threonine-protein kinase 26 (Homo sapiens) (UniProt Q9P289)
[19] = target: Serine/threonine-protein kinase OSR1 (Homo sapiens) (UniProt O95747)
[20] = target: Serine/threonine-protein kinase PAK 5 (Homo sapiens) (UniProt Q9P286)
[21] = target: Cyclin-dependent kinase 16 (Homo sapiens) (UniProt Q00536)
[22] = target: Serine/threonine-protein kinase pim-3 (Homo sapiens) (UniProt Q86V86)
[23] = target: Serine/threonine-protein kinase PLK1 (Homo sapiens) (UniProt P53350)
[24] = target: Serine/threonine-protein kinase RIO2 (Homo sapiens) (UniProt Q9BVS4)
[25] = target: Ribosomal protein S6 kinase alpha-3 (Homo sapiens) (UniProt P51812)
[26] = target: STE20-like serine/threonine-protein kinase (Homo sapiens) (UniProt Q9H2G2)
[27] = target: Serine/threonine-protein kinase 38 (Homo sapiens) (UniProt Q15208)
[28] = target: T2, Serine/threonine-protein kinase VRK1 (Homo sapiens) (UniProt Q99986)
T2 sequence (whole entry): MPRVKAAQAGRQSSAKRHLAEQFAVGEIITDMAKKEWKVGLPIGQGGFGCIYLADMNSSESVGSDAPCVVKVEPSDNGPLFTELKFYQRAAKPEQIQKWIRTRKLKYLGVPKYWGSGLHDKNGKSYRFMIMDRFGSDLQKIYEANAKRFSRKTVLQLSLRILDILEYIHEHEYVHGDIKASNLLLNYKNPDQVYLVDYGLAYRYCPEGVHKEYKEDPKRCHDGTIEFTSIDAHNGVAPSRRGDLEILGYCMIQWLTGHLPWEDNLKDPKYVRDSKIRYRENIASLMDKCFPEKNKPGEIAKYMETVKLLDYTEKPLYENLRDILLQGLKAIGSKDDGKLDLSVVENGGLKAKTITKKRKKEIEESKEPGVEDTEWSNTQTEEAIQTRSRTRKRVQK

[29] = target: T3, Serine/threonine-protein kinase VRK3 (Homo sapiens) (UniProt Q8IV63)
T3 sequence (whole entry): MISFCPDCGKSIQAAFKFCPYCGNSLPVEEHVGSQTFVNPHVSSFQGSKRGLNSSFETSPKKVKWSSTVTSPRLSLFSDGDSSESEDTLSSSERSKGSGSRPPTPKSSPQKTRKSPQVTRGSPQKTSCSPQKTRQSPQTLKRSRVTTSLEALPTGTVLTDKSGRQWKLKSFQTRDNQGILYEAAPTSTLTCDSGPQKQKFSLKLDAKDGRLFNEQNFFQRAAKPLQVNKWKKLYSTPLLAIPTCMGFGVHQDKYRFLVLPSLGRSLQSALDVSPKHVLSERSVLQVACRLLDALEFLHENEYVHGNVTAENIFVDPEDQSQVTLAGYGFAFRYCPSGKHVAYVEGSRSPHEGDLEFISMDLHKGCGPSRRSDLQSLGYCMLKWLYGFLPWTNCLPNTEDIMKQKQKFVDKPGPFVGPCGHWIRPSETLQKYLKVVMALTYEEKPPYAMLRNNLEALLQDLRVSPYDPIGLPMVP

Sequence of STE20-like serine/threonine-protein kinase (Homo sapiens) (Q9H2G2 whole entry, looked up): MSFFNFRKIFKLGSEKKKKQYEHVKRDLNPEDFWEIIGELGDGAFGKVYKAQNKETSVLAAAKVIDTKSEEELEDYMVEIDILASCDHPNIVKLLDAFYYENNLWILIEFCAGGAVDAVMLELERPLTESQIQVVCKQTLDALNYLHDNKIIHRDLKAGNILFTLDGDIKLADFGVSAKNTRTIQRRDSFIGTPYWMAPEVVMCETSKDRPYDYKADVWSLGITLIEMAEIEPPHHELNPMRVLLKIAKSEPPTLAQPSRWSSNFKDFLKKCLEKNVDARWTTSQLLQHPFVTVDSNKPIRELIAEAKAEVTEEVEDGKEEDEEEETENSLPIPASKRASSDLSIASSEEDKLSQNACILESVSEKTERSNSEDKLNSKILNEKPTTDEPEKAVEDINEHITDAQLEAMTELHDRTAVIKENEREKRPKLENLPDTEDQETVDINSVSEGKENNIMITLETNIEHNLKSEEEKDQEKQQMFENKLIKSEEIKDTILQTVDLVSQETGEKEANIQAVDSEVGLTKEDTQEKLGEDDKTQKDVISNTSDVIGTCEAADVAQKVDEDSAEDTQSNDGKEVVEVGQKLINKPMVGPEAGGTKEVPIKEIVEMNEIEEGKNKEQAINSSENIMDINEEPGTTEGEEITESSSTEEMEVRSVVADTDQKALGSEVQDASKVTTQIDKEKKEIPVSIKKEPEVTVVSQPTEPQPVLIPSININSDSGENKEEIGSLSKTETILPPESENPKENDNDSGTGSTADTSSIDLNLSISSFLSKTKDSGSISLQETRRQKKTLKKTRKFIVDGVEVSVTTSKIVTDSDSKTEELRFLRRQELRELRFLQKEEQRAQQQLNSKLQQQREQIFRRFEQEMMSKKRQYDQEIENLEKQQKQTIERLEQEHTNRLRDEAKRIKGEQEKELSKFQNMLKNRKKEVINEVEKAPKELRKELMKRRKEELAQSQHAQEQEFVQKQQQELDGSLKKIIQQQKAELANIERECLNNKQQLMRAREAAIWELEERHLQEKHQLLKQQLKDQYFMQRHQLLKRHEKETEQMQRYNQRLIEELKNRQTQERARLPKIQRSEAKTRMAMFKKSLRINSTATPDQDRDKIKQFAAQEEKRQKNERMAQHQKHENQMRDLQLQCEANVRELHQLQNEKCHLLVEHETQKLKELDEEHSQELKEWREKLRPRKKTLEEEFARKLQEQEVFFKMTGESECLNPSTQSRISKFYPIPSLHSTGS
Sequence of Serine/threonine-protein kinase 26 (Homo sapiens) (Q9P289 2-416 limits assumed): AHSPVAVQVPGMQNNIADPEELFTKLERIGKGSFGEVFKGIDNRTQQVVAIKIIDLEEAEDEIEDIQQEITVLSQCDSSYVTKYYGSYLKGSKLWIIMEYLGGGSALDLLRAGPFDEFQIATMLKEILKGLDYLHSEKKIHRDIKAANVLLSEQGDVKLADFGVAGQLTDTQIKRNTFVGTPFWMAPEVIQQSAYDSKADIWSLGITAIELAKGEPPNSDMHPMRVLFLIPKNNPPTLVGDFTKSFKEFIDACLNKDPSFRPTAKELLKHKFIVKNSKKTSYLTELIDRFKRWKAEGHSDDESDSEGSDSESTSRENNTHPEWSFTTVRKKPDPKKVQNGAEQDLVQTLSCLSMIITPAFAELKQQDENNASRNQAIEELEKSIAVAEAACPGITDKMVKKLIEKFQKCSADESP
Sequence of Calcium/calmodulin-dependent protein kinase type II subunit alpha (Homo sapiens) (Q9UQM7 whole entry): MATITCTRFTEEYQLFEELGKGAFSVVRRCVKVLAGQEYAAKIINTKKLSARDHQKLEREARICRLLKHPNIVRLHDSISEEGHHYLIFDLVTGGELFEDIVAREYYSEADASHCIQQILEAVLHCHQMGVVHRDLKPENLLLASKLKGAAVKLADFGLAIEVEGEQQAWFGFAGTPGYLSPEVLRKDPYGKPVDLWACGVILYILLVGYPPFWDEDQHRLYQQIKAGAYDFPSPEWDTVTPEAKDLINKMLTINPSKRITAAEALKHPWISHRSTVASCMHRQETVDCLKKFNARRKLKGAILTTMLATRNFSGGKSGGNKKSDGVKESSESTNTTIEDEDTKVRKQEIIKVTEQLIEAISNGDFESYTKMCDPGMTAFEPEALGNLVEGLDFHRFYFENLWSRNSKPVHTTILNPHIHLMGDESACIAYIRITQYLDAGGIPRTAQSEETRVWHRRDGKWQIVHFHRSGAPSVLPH
Sequence of Serine/threonine-protein kinase RIO2 (Homo sapiens) (Q9BVS4 whole entry, looked up): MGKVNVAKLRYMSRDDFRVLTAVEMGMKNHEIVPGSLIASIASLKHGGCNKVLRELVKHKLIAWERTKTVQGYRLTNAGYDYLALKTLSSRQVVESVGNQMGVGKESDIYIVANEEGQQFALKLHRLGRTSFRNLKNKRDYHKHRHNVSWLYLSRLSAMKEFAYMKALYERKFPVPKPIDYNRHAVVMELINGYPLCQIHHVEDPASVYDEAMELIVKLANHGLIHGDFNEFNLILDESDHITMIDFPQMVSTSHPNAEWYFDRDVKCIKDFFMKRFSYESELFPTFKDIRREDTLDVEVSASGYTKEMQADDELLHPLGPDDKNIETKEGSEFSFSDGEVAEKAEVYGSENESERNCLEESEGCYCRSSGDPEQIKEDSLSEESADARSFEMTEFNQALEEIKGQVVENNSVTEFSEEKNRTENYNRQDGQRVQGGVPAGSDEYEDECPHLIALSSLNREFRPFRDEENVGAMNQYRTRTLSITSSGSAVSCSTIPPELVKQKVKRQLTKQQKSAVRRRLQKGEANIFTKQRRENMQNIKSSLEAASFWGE
Sequence of Calcium/calmodulin-dependent protein kinase type II subunit gamma (Homo sapiens) (Q13555 whole entry): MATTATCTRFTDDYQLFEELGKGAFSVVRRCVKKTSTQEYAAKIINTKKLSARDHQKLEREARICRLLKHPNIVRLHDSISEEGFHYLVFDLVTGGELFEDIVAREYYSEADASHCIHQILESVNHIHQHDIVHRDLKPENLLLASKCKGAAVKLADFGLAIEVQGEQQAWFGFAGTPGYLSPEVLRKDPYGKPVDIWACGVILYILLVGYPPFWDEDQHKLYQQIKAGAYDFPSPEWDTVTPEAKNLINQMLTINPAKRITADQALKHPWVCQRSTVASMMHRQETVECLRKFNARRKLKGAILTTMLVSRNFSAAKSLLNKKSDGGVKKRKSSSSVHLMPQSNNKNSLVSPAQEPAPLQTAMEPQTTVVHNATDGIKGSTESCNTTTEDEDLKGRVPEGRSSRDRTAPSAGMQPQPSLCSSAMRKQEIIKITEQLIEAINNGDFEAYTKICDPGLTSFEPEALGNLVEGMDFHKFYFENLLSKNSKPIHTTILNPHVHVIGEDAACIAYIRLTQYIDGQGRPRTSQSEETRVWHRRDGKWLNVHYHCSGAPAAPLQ
Sequence of Cyclin-dependent kinase 16 (Homo sapiens) (Q00536 whole entry): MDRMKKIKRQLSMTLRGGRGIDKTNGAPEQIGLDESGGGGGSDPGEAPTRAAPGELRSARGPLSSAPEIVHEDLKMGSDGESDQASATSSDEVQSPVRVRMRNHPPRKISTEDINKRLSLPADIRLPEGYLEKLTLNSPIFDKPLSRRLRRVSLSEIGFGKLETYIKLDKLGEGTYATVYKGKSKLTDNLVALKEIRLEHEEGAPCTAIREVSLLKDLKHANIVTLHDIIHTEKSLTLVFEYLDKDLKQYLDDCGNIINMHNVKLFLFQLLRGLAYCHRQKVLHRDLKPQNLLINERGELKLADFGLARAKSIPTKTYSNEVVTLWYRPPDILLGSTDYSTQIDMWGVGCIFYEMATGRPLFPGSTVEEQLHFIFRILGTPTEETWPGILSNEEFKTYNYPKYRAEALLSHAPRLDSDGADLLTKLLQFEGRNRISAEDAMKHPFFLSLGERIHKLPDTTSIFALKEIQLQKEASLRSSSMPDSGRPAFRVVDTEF
Sequence of Ribosomal protein S6 kinase alpha-3 (Homo sapiens) (P51812 whole entry): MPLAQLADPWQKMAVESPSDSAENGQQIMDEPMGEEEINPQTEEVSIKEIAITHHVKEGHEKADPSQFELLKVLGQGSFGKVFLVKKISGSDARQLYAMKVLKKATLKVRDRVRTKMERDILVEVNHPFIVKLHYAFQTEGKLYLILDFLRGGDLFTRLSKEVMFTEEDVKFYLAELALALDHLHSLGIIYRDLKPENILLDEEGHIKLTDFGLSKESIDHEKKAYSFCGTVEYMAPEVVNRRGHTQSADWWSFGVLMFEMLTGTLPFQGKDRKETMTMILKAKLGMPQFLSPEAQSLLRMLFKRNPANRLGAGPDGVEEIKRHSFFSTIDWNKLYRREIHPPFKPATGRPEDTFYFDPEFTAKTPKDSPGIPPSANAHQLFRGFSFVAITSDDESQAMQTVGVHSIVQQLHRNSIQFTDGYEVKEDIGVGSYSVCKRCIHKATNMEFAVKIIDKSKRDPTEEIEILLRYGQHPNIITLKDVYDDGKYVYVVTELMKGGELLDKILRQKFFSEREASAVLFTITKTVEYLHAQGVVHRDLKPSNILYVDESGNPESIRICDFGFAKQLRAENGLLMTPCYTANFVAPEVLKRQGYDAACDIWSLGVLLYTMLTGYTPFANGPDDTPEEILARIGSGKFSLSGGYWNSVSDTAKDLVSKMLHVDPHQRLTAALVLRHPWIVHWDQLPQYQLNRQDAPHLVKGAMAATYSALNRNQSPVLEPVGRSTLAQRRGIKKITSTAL
Sequence of Serine/threonine-protein kinase OSR1 (Homo sapiens) (O95747 2-527 limits assumed): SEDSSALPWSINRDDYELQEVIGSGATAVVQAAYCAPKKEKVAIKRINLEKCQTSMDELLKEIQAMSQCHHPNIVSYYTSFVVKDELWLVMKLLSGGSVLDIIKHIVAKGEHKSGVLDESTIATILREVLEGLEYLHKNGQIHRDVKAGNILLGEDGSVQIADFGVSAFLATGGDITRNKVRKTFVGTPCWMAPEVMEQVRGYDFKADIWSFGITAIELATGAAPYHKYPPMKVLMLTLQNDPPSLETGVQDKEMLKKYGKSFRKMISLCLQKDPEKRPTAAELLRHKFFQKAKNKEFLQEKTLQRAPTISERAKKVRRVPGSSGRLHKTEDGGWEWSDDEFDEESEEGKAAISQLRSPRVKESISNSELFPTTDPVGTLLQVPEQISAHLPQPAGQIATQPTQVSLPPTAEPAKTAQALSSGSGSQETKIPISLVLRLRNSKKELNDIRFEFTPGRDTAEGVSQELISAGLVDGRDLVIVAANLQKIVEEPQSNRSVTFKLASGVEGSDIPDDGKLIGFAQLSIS

| SMILES | ΔTm [1] | ΔTm [2] | ΔTm [3] | ΔTm [4] | ΔTm [5] | ΔTm [6] | ΔTm [7] | ΔTm [8] | ΔTm [9] | ΔTm [10] | ΔTm [11] | ΔTm [12] | ΔTm [14] | ΔTm [15] | ΔTm [16] | ΔTm [17] | ΔTm [18] | ΔTm [19] | ΔTm [20] | ΔTm [13] | other results |
| --- | --- | --- | --- | --- | --- | --- | --- | --- | --- | --- | --- | --- | --- | --- | --- | --- | --- | --- | --- | --- | --- |
| N#CCCc1ccc2c(c1)-c1[nH]c3ccc([N+](=O)[O-])cc3c1CC(=O)N2 [ALSTERPAULLONE 2] | 1 °C | 0.4 °C | 0.2 °C | -0.3 °C | 0.1 °C | 6.6 °C | 3.2 °C | 0.5 °C | 8.2 °C | 3.1 °C | 2 °C | 1.6 °C | 1.4 °C | 0.9 °C | 0.8 °C | 2.2 °C | 3.5 °C | 0.8 °C | 3.9 °C | 1.7 °C | ΔTm [21]: 8.7 °C; ΔTm [22]: 1.9 °C; ΔTm [23]: 0.4 °C; ΔTm [24]: 1.2 °C; ΔTm [25]: 1.4 °C; ΔTm [26]: 1.8 °C; ΔTm [27]: 3.3 °C; ΔTm [28]: 1.1 °C; ΔTm [29]: 0.6 °C |
| O=c1c2ccccc2[nH]c(=S)n1CCN1CCC(=C(c2ccc(F)cc2)c2ccc(F)cc2)CC1 [DIACYLGLYCEROL KINASE INHIBITOR II] | -3.3 °C | -0.6 °C | -1 °C | -5.4 °C | -0.5 °C | 0.9 °C | -0.4 °C | -0.5 °C | 1.6 °C | 0.3 °C | 0.5 °C | -1.3 °C | 0.6 °C | 0.3 °C | 0.4 °C | 0.2 °C | 2.4 °C | 2.4 °C | -0.2 °C | 1.6 °C | ΔTm [21]: -0.7 °C; ΔTm [22]: 0.9 °C; ΔTm [23]: 0.6 °C; ΔTm [24]: 3.5 °C; ΔTm [25]: 0.3 °C; ΔTm [26]: 2.3 °C; ΔTm [27]: 0.2 °C; ΔTm [28]: -0.2 °C; ΔTm [29]: -0.6 °C |
| COc1ccc(CNc2nc(N(CCO)CCO)nc3c2ncn3C(C)C)cc1 | 0.6 °C | 0 °C | 0.3 °C | -0.3 °C | 0.3 °C | 1.6 °C | -0.1 °C | 0.3 °C | 0.9 °C | 2.4 °C | 1.6 °C | 1.7 °C | 0.2 °C | 0.1 °C | 0.1 °C | 0.2 °C | 0.8 °C | 0.4 °C | 1.1 °C | 0.7 °C | ΔTm [21]: -0.3 °C; ΔTm [22]: 0.2 °C; ΔTm [23]: 0.9 °C; ΔTm [24]: 0.3 °C; ΔTm [25]: 1.7 °C; ΔTm [26]: 0.3 °C; ΔTm [27]: 0.4 °C; ΔTm [28]: 0.7 °C; ΔTm [29]: 0.4 °C |

Second part, led by results:

| ΔTm [1] | ΔTm [2] | ΔTm [3] | ΔTm [4] | ΔTm [5] | ΔTm [6] | ΔTm [7] | ΔTm [8] | ΔTm [9] | ΔTm [10] | ΔTm [11] | ΔTm [12] | ΔTm [14] | ΔTm [15] | ΔTm [16] | ΔTm [17] | ΔTm [18] | ΔTm [19] | ΔTm [20] | SMILES | ΔTm [13] | other results |
| --- | --- | --- | --- | --- | --- | --- | --- | --- | --- | --- | --- | --- | --- | --- | --- | --- | --- | --- | --- | --- | --- |
| 0.5 °C | -0.6 °C | 0.7 °C | 0.4 °C | -0.1 °C | -3.4 °C | -5 °C | 0.5 °C | 0.7 °C | -1.1 °C | 0.4 °C | 0.3 °C | 8.5 °C | 0.4 °C | 0 °C | -0.4 °C | 0.1 °C | -0.1 °C | -0.5 °C | CCOC(=O)c1c(C)[nH]c(/C=C2\C(=O)Nc3ccccc32)c1C | 0 °C | ΔTm [21]: -0.2 °C; ΔTm [22]: 0.3 °C; ΔTm [23]: -0.6 °C; ΔTm [24]: -8.9 °C; ΔTm [25]: 0.1 °C; ΔTm [26]: 1.6 °C; ΔTm [27]: -0.1 °C; ΔTm [28]: -1.7 °C; ΔTm [29]: -2.2 °C |
| -0.8 °C | 1.2 °C | 0.7 °C | 0.5 °C | 0.2 °C | -4.5 °C | 0.6 °C | -0.3 °C | 1.8 °C | 2.6 °C | 2.7 °C | 1.5 °C | 2.2 °C | 0.1 °C | 0.2 °C | 0.8 °C | 1.4 °C | 1.9 °C | -0.3 °C | COc1cc(O)c2c(c1)oc(=O)c1c3cc(O)c(O)cc3oc21 [WEDELOLACTONE] | 0 °C | ΔTm [21]: 0.1 °C; ΔTm [22]: 5.9 °C; ΔTm [23]: 1.4 °C; ΔTm [24]: 3.6 °C; ΔTm [25]: 1 °C; ΔTm [26]: 1.3 °C; ΔTm [27]: 0.5 °C; ΔTm [28]: 0 °C; ΔTm [29]: -1 °C |
| 3.6 °C | 3.6 °C | 1.2 °C | 1 °C | 2.5 °C | 5.2 °C | 2.7 °C | 3.7 °C | 6.6 °C | 4.5 °C | 3.6 °C | 3.6 °C | 7.5 °C | 5.3 °C | 14.6 °C | 2 °C | 2.5 °C | 1.4 °C | 1.3 °C | O=C1NC(=O)c2c1c1c3ccccc3[nH]c1n1cncc21 [ISOGRANULATIMIDE] | 5.3 °C | ΔTm [21]: 3.1 °C; ΔTm [22]: 8.8 °C; ΔTm [23]: 9.3 °C; ΔTm [24]: 7.3 °C; ΔTm [25]: 2.5 °C; ΔTm [26]: 2.1 °C; ΔTm [27]: 2.4 °C; ΔTm [28]: 1.7 °C; ΔTm [29]: 3.7 °C |
| -0.1 °C | -0.1 °C | 1 °C | 0.1 °C | -0.2 °C | 1.9 °C | 2.1 °C | 3.9 °C | 5.4 °C | 7.9 °C | 2.3 °C | 0.3 °C | 4.1 °C | 2.8 °C | 4 °C | 0.8 °C | 1.7 °C | 3.7 °C | 1.3 °C | COc1cc(/C=C/C(=O)CC(=O)/C=C/c2ccc(O)c(OC)c2)ccc1O [CURCUMIN] | 1.8 °C | ΔTm [21]: 0.7 °C; ΔTm [22]: 6.9 °C; ΔTm [23]: 2 °C; ΔTm [24]: 2.8 °C; ΔTm [25]: 3 °C; ΔTm [26]: 3.2 °C; ΔTm [27]: 2.5 °C; ΔTm [28]: 1 °C; ΔTm [29]: 1.3 °C |
